Laboratory results reported in patent US9890147B2 (BAYER PHARMA AKTIENGESELLSCHAFT, priority 2012, dated 2018).

What was measured:
MDA-MB-231 cells = assay: Cell proliferation assay (alamarBlue), MDA-MB-231; assay type: cell-based; settings: Homo sapiens; inhibition of cell proliferation, MDA-MB-231 (breast carcinoma), 96 hours
Experimental: (§1) In accordance with the invention, the capability of the substances to inhibit cell proliferation was determined Cell viability was determined using the alamarBlue® reagent (Invitrogen) in a Victor X3 Multilabel Reader (Perkin Elmer). The excitation wavelength was 530 nm and the emission wavelenth […].
The MDA-MB-231 cells (DSMZ, ACC 732) were sown at a concentration of 4000 cells/well in 100 μl growth medium (DMEM/Ham's F12 medium, 10% FCS) on 96-well microtitre plates. The Caov-3 cells (ATCC, HTB-75) were sown at a concentration of 2000 cells/well in 100 μl growth medium (MEM Earle's medium, 10% FCS) on 96-well microtitre plates.
(§2) After an overnight incubation at 37° C., the fluorescence values (CI values) were determined. The plates were then treated with various substance dilutions (1E-5 M, 3E-6 M, 1E-6M, 3E-7 M, 1E-7 M, 3E-8 M, 1E-8 M) and incubated at 37° C. for 72 (MV4-11-, LOX-IMVI cells), 96 (MOLM-13-, B16F10-, MDA-MB-431-, Caov-3 cells), 120 (MOLP-8-, KMS-12-PE cells) or 168 (LAPC-4 cells) hours. The fluorescence values (CO values) were then determined. For the data analysis, the CI values were subtracted from the CO values and the results were compared between cells treated with different dilutions of the substance or with buffer solution only. These were used to calculate the IC 50 values (substance concentration required for 50% inhibition of cell proliferation).

BRD4 (BD1) = biological target: T1, BRD4 (BD1) (Homo sapiens, UniProt O60885); assay: Binding assay BRD4/acetylated peptide H4 (TR-FRET protein-protein interaction assay)
T1 construct: with relatively long constructs also being possible, preferably amino acids 44-168; made in house; host or cells: E. coli
Summary of the method: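 His6-BRD4 BD1 (aa 67-152, E. coli), usually 10 nM, with biotinylated tetra-acetylated H4 peptide in HEPES pH 7.5 buffer; 11 compound concentrations 0.1 nM–20 μM in duplicate, 10 min preincubation, 1 h at 22 °C then ≥3 h at 4 °C. TR-FRET 665/620 ratio; IC50 by 4-parameter fit.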

B16F10 cells = assay: Cell proliferation assay (alamarBlue), B16F10; assay type: cell-based; settings: Mus musculus, B16-F10, 96 hours incubation, inhibition of cell proliferation
Experimental: as §1
The B16F10 cells (ATCC, CRL-6475) were sown at a concentration of 300-500 cells/well in 100 μl growth medium (DMEM with phenol red, 10% FCS) on 96-well microtitre plates.
as §2

LAPC-4 cells = assay: Cell proliferation assay (alamarBlue), LAPC-4; assay type: cell-based; settings: Homo sapiens, LAPC4; inhibition of cell proliferation, LAPC-4 (prostate cancer), 1 nM methyltrienolone, 168 hours
Experimental: as §1
The LAPC-4 cells (ATCC, PTA-1441TM) were sown at a concentration of 4000 cells/well in 100 μl growth medium (RPMI1640, 2 mM L-glutamine, 10% cFCS) on 96-well microtitre plates. A day later, the LAPC-4 cells were treated with 1 nM methyltrienolone and various substance dilutions.
as §2

MOLM-13 cells = assay: Cell proliferation assay (alamarBlue), MOLM-13; assay type: cell-based; settings: Homo sapiens, 96 hours incubation, inhibition of cell proliferation
Summary of the method: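 Cells in RPMI1640/10% FCS read by alamarBlue fluorescence (ex 530, em 590 nm) after overnight 37 °C incubation, then treated at 1E-5 to 1E-8 M for 96 h. Pre-treatment values subtracted from endpoint values and compared with buffer-only wells; IC50 is 50% proliferation inhibition.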

LOX-IMVI cells = assay: Cell proliferation assay (alamarBlue), LOX-IMVI; assay type: cell-based; settings: Homo sapiens, 72 hours incubation, inhibition of cell proliferation
Summary of the method: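 Cells seeded at 1000/well in RPMI1640 with 10% FCS, incubated overnight at 37° C, then treated with dilutions from 1E-5 to 1E-8 M for 72 h. Viability read by alamarBlue fluorescence (ex 530/em 590 nm); pre-treatment values subtracted and compared with buffer-only cells to derive IC50.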

KMS-12-PE cells = assay: Cell proliferation assay (alamarBlue), KMS-12-PE; assay type: cell-based; settings: Homo sapiens, 120 hours incubation, inhibition of cell proliferation
Summary of the method: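 KMS-12-PE myeloma cells in RPMI1640 with 20% FCS were exposed to compound (1E-5 to 1E-8 M) for 120 h at 37° C. AlamarBlue fluorescence (ex 530, em 590 nm) read before and after treatment; the difference versus buffer-treated cells gave IC50.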

Caov-3 cells = assay: Cell proliferation assay (alamarBlue), Caov-3; assay type: cell-based; settings: Homo sapiens; inhibition of cell proliferation, Caov-3 (ovarian carcinoma), 96 hours
Summary of the method: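 Caov-3 (MEM Earle's, 10% FCS, 2000 cells/well) and MDA-MB-231 (DMEM/Ham's F12, 10% FCS, 4000 cells/well) were treated after overnight attachment with 1E-5 to 1E-8 M compound. Caov-3 exposure was 96 h. alamarBlue fluorescence (ex 530, em 590 nm) was read after background subtraction of day-0 values, and IC50 calculated versus buffer-treated cells.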

MV4-11 cells = assay: Cell proliferation assay (alamarBlue), MV4-11; assay type: cell-based; settings: Homo sapiens, 72 hours incubation, inhibition of cell proliferation
Summary of the method: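 Cells seeded at 5000/well in RPMI1640 + 10% FCS, incubated overnight at 37° C, then treated with compound (1E-5 to 1E-8 M) for 72 h at 37° C. Viability by alamarBlue fluorescence (ex 530/em 590 nm); pre-treatment readings subtracted, IC50 derived versus buffer-treated cells.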

MOLP-8 cells = assay: Cell proliferation assay (alamarBlue), MOLP-8; assay type: cell-based; settings: Homo sapiens, 120 hours incubation, inhibition of cell proliferation
Summary of the method: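 MOLP-8 cells in RPMI1640 with 20% FCS, 4000 cells/well, treated overnight after seeding with substance at 1E-5 to 1E-8 M for 120 h at 37° C. Viability read by alamarBlue fluorescence (ex 530, em 590); pre-treatment values subtracted, compared with buffer-only cells to derive IC50.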

| SMILES | IC50 (MDA-MB-231 cells) | IC50 (BRD4 (BD1)) | IC50 (B16F10 cells) | IC50 (MOLM-13 cells) | IC50 (MV4-11 cells) | IC50 (LAPC-4 cells) | IC50 (LOX-IMVI cells) | IC50 (KMS-12-PE cells) | IC50 (Caov-3 cells) | IC50 (MOLP-8 cells) |
| --- | --- | --- | --- | --- | --- | --- | --- | --- | --- | --- |
| CNC(=O)N1N=C(c2ccc(Cl)cc2)c2cc(N3CCCCC3)ccc2CC1C (racemic) [Example 13] | 1.3 µM | 0.21 µM | 0.92 µM | 1.44 µM | – | 0.9 µM | – | – | – | – |
| CNC(=O)N1N=C(c2ccc(N3CCOCC3)cc2)c2cc(OC)ccc2C[C@@H]1C [Example 17, (4S)-8-Methoxy-N,4-dimethyl-1-[4-(morpholin-4-yl)phenyl]-4,5-dihydro-3H-2,3-benzodiazepine-3-carboxamide] | 0.21 µM | 0.04 µM | – | 0.17 µM | 0.13 µM | 0.1 µM | 0.3 µM | 0.11 µM | 0.22 µM | 0.11 µM |
| CNC(=O)N1N=C(c2ccc(Cl)cc2)c2cc(N3CCN(C)CC3)ccc2CC1C (racemic) [Example 12, (±)-1-(4-Chlorophenyl)-N,4-dimethyl-8-(4-methylpiperazin-1-yl)-4,5-dihydro-3H-2,3-benzodiazepine-3-carboxamide] | 1.85 µM | 0.54 µM | 1.32 µM | 1.61 µM | – | 0.87 µM | – | – | – | – |
| CNC(=O)N1N=C(c2ccc(Cl)cc2)c2cc(OC(F)(F)F)ccc2C[C@H]1C [Example 1.2, (4R)-1-(4-Chlorophenyl)-N,4-dimethyl-8-(trifluoromethoxy)-4,5-dihydro-3H-2,3-benzodiazepine-3-carboxamide] | > 10 µM | 2.5 µM | > 10 µM | > 10 µM | – | 5.17 µM | – | – | – | – |
| CNC(=O)N1N=C(c2ccc(-c3cnoc3)cc2)c2cc(OC)ccc2C[C@@H]1C [Example 18, (4S)-1-[4-(4-Isoxazolyl)phenyl]-8-methoxy-N,4-dimethyl-4,5-dihydro-3H-2,3-benzodiazepine-3-carboxamide] | 0.28 µM | 0.16 µM | – | 0.25 µM | 0.3 µM | – | 0.76 µM | 0.35 µM | 0.48 µM | 0.34 µM |
| CNC(=O)N1N=C(c2ccc(Cl)cc2)c2cc(N3CCOCC3)ccc2C[C@@H]1C [Example 11.1, (4S)-1-(4-Chlorophenyl)-N,4-dimethyl-8-(morpholin-4-yl)-4,5-dihydro-3H-2,3-benzodiazepine-3-carboxamide] | 1.11 µM | 0.08 µM | – | 0.57 µM | – | 0.31 µM | – | – | – | – |
| CNC(=O)N1N=C(c2ccc(Cl)cc2)c2cc(OC(F)(F)F)ccc2CC1C (racemic) [Example 1, (±)-1-(4-Chlorophenyl)-N,4-dimethyl-8-(trifluoromethoxy)-4,5-dihydro-3H-2,3-benzodiazepine-3-carboxamide] | 0.9 µM | 0.19 µM | 0.69 µM | 1.26 µM | – | 0.6 µM | – | – | – | – |
| CNC(=O)N1N=C(c2ccc(-n3nc(C)cc3C)cc2)c2cc(OC)ccc2C[C@@H]1C [Example 16, (4S)-1-[4-(3,5-Dimethyl-1H-pyrazol-1-yl)phenyl]-8-methoxy-N,4-dimethyl-4,5-dihydro-3H-2,3-benzodiazepine-3-carboxamide] | 0.47 µM | 0.05 µM | – | 0.22 µM | 0.27 µM | 0.11 µM | 0.64 µM | 0.25 µM | 0.37 µM | 0.29 µM |
| CNC(=O)N1N=C(c2cccnc2)c2cc(OC)ccc2CC1C (racemic) [Example 14, (±)-8-Methoxy-N,4-dimethyl-1-(pyridin-3-yl)-4,5-dihydro-3H-2,3-benzodiazepine-3-carboxamide] | 3.64 µM | 0.59 µM | 2.63 µM | 3.07 µM | – | 1.65 µM | – | – | – | – |
| CNC(=O)N1N=C(c2ccc(Cl)cc2)c2cc(C3CC3)ccc2CC1C (racemic) [Example 9, (±)-1-(4-chlorophenyl)-8-cyclopropyl-N,4-dimethyl-4,5-dihydro-3H-2,3-benzodiazepine-3-carboxamide] | 0.73 µM | 0.12 µM | 0.54 µM | 0.65 µM | – | 0.43 µM | – | – | – | – |

The remaining compounds from weak to strong by IC50 (MDA-MB-231 cells), led by results:

| IC50 (MDA-MB-231 cells) | IC50 (BRD4 (BD1)) | IC50 (B16F10 cells) | IC50 (MOLM-13 cells) | IC50 (MV4-11 cells) | SMILES | IC50 (LAPC-4 cells) | IC50 (LOX-IMVI cells) | IC50 (KMS-12-PE cells) | IC50 (Caov-3 cells) | IC50 (MOLP-8 cells) |
| --- | --- | --- | --- | --- | --- | --- | --- | --- | --- | --- |
| 2.58 µM | 0.31 µM | 1.12 µM | 1.91 µM | – | CNC(=O)N1N=C(c2ccc(Cl)cc2)c2cc(N3CCOCC3)ccc2CC1C (racemic) [Example 11, (±)-1-(4-Chlorophenyl)-N,4-dimethyl-8-(morpholin-4-yl)-4,5-dihydro-3H-2,3-benzodiazepine-3-carboxamide] | 0.45 µM | – | – | – | – |
| 1.39 µM | 0.25 µM | 1.05 µM | 1.51 µM | – | CNC(=O)N1N=C(c2ccc(-c3c(C)noc3C)cc2)c2cc(OC)c(OC)cc2C[C@H]1C [Example 2.1, (4R)-1-[4-(3,5-Dimethyl-4-isoxazolyl)phenyl]-7,8-dimethoxy-N,4-dimethyl-4,5-dihydro-3H-2,3-benzodiazepine-3-carboxamide] | 0.71 µM | – | – | – | – |
| 1.35 µM | 0.03 µM | 0.69 µM | 0.82 µM | – | CNC(=O)N1N=C(c2ccc(-c3ccc(C(=O)O)s3)cc2)c2cc(OC)c(OC)cc2CC1C (racemic) [Example 5, (±)-5-(4-{7,8-dimethoxy-4-methyl-3-[(methylamino)carbonyl]-4,5-dihydro-3H-2,3-benzodiazepin-1-yl}phenyl)thiophene-2-carboxylic acid] | 0.27 µM | – | – | – | – |
| 0.28 µM | 0.09 µM | 0.19 µM | 0.38 µM | – | CNC(=O)N1N=C(c2ccc(Cl)cc2)c2cc(-c3ccncc3)ccc2CC1C (racemic) [Example 8, (±)-1-(4-Chlorophenyl)-N,4-dimethyl-8-(pyridin-4-yl)-4,5-dihydro-3H-2,3-benzodiazepine-3-carboxamide] | 0.18 µM | – | – | – | – |
| 0.22 µM | 0.07 µM | – | 0.19 µM | 0.14 µM | CNC(=O)N1N=C(c2ccc(-c3c(C)noc3C)cc2)c2cc(OC)ccc2C[C@@H]1C [Example 20, (4S)-1-[4-(3,5-dimethyl-4-isoxazolyl)phenyl]-8-methoxy-N,4-dimethyl-4,5-dihydro-3H-2,3-benzodiazepine-3-carboxamide] | 0.12 µM | 0.33 µM | 0.11 µM | 0.24 µM | 0.12 µM |
